Data as given in patent US20090324752A1, “COSMETIC USE OF ACTIVE INGREDIENTS INCREASING THE PRODUCTION OF GROWTH FACTORS” (CHANEL PARFUMS BEAUTE, priority 2006, published 2009).

Test system: Human dermal fibroblasts
Assay: Stimulation of fibroblast proliferation by PDGF and FGFb (CellTiter 96 Aqueous One, absorbance 490 nm)
Type: cell-based
Conditions: 24 h, compared to the control (untreated = 100.00)
Description: Human dermal fibroblasts from a single donor were obtained from Cascade. At the 7rd passage, cells were seeded in 96 well plates and cultured in Dulbecco's modified Eagle medium DMEM (Gibco BRL, Gaithersburg, USA) supplemented with 10% foetal bovine serum (FBS, PAA, Linz, Austria), […] L-glutamine (Gibco) and 1% penicillin/streptomycin (Gibco). All cell culture was performed at […] in 5% CO2 and 95% air. This fibroblast culture was incubated by two growth factors ([…] and FGFb) at various concentrations for 24 h. After 24 hours incubation, 200 μL dosed media from 96-well plate were removed. CellTiter 96 Aqueous One Solution Reagent was used as described by the manufacturer. The absorbance at 490 nm was recorded using a plate reader to evaluate cell proliferation. The controls were the non treated cells. The experiment was conducted in 8 times by concentration.

FGFb (157 aa): Basic Fibroblast Growth Factor (157 aa), growth factor added to fibroblast culture
Stimulation (%) of fibroblast proliferation (1 ng/ml): 141.22% | Stimulation (%) of fibroblast proliferation (10 ng/ml): 149.20%

PDGF
Stimulation (%) of fibroblast proliferation (1 ng/ml): 107.20% | Stimulation (%) of fibroblast proliferation (10 ng/ml): 154.37% | Stimulation (%) of fibroblast proliferation (30 ng/ml): 185.58%
